Results reported in the supplement of paper PMC10307832.

Columns and labels:
Assay in all cases: relative viability (nuclei count vs DMSO), 5 days (fraction); higher = more cells survive
EMC-BAC-2 = system: EMC-BAC-2
Method in brief: (§1)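 Cells from lung cancer lines were seeded into 1536-well plates and, one day later, dosed by pin tool. Treatments were either a single drug or a fixed dose of an anchor drug with five library-drug doses (not always all listed) in √10 steps. After 5 days, nuclei were stained in a one-step fixation (final 0.05% Triton X-100, 1% formaldehyde, 1 ug/ml Hoechst) and counted on 4× images, and relative viability is the treated-to-vehicle nuclei ratio, as the median of duplicate plates.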

EPLC-272H = system: EPLC-272H
Method in brief: as §1

H3255 = system: H3255
Method in brief: as §1

HOP-62 = system: HOP-62
Method in brief: as §1

LCLC-97TM1 = system: LCLC-97TM1
Method in brief: as §1

LXF-289 = system: LXF-289
Method in brief: as §1

NCI-H1563 = system: NCI-H1563
Method in brief: as §1

NCI-H1734 = system: NCI-H1734
Method in brief: as §1

NCI-H1915 = system: NCI-H1915
Method in brief: as §1

NCI-H1993 = system: NCI-H1993
Method in brief: as §1

NCI-H2009 = system: NCI-H2009
Method in brief: as §1

NCI-H2023 = system: NCI-H2023
Method in brief: as §1

NCI-H2085 = system: NCI-H2085
Method in brief: as §1

NCI-H2126 = system: NCI-H2126
Method in brief: as §1

NCI-H2347 = system: NCI-H2347
Method in brief: as §1

NCI-H322M = system: NCI-H322M
Method in brief: as §1

NCI-H647 = system: NCI-H647
Method in brief: as §1

NCI-H661 = system: NCI-H661
Method in brief: as §1

NCI-H727 = system: NCI-H727
Method in brief: as §1

PC-14 = system: PC-14
Method in brief: as §1

SK-LU-1 = system: SK-LU-1
Method in brief: as §1

SW 1573 = system: SW 1573
Method in brief: as §1

`COc1nc(C)cnc1NS(=O)(=O)c1cccnc1-c1ccc(-c2nnco2)cc1` [Zibotentan] + Cc1nc(NC(=O)N2CCC[C@H]2C(N)=O)sc1-c1ccnc(C(C)(C)C(F)(F)F)c1 [Alpelisib] (partner 2 µM) gave a relative viability (EMC-BAC-2; first compound 0.08 µM) of 0.78, a relative viability (EMC-BAC-2; first compound 0.253 µM) of 0.72 and a relative viability (EMC-BAC-2; first compound 0.8 µM) of 0.714. It also gave a relative viability (EMC-BAC-2; first compound 2.53 µM) of 0.782, a relative viability (EPLC-272H; first compound 0.08 µM) of 0.805 and a relative viability (EPLC-272H; first compound 0.253 µM) of 0.908. For the same molecule, the relative viability (EPLC-272H; first compound 0.8 µM) was 0.979, the relative viability (EPLC-272H; first compound 2.53 µM) was 0.943 and the relative viability (H3255; first compound 0.08 µM) was 0.712. The relative viability (H3255; first compound 0.253 µM) was 0.698, the relative viability (H3255; first compound 0.8 µM) was 0.672 and the relative viability (H3255; first compound 2.53 µM) was 0.727. It also gave a relative viability (HOP-62; first compound 0.08 µM) of 1.01, a relative viability (HOP-62; first compound 0.253 µM) of 1.03 and a relative viability (HOP-62; first compound 0.8 µM) of 1.12. The relative viability (HOP-62; first compound 2.53 µM) was 0.911, the relative viability (LCLC-97TM1; first compound 0.08 µM) was 0.309 and the relative viability (LCLC-97TM1; first compound 0.253 µM) was 0.238. For the same molecule, the relative viability (LCLC-97TM1; first compound 0.8 µM) was 0.183, the relative viability (LCLC-97TM1; first compound 2.53 µM) was 0.264 and the relative viability (LXF-289; first compound 0.08 µM) was 1.03. It also gave a relative viability (LXF-289; first compound 0.253 µM) of 1.04, a relative viability (LXF-289; first compound 0.8 µM) of 1.11 and a relative viability (LXF-289; first compound 2.53 µM) of 1.09. For the same molecule, the relative viability (NCI-H1563; first compound 0.08 µM) was 0.978, the relative viability (NCI-H1563; first compound 0.253 µM) was 0.666 and the relative viability (NCI-H1563; first compound 0.8 µM) was 1.01. It also gave a relative viability (NCI-H1563; first compound 2.53 µM) of 1.02, a relative viability (NCI-H1734; first compound 0.08 µM) of 0.794 and a relative viability (NCI-H1734; first compound 0.253 µM) of 0.726. For the same molecule, the relative viability (NCI-H1734; first compound 0.8 µM) was 0.681, the relative viability (NCI-H1734; first compound 2.53 µM) was 0.686 and the relative viability (NCI-H1915; first compound 0.08 µM) was 1.14. It also gave a relative viability (NCI-H1915; first compound 0.253 µM) of 1.1, a relative viability (NCI-H1915; first compound 0.8 µM) of 1.09 and a relative viability (NCI-H1915; first compound 2.53 µM) of 1.03. The relative viability (NCI-H1993; first compound 0.253 µM) was 0.679, the relative viability (NCI-H1993; first compound 0.8 µM) was 0.652 and the relative viability (NCI-H1993; first compound 2.53 µM) was 0.766. It also gave a relative viability (NCI-H2009; first compound 0.08 µM) of 1.14, a relative viability (NCI-H2009; first compound 0.253 µM) of 1.1 and a relative viability (NCI-H2009; first compound 0.8 µM) of 1.18. It also gave a relative viability (NCI-H2009; first compound 2.53 µM) of 1.2, a relative viability (NCI-H2023; first compound 0.08 µM) of 0.632 and a relative viability (NCI-H2023; first compound 0.253 µM) of 0.485. The relative viability (NCI-H2023; first compound 0.8 µM) was 0.658, the relative viability (NCI-H2023; first compound 2.53 µM) was 0.591 and the relative viability (NCI-H2085; first compound 0.08 µM) was 0.93. It also gave a relative viability (NCI-H2085; first compound 0.253 µM) of 0.939, a relative viability (NCI-H2085; first compound 0.8 µM) of 1.06 and a relative viability (NCI-H2085; first compound 2.53 µM) of 0.932. For the same molecule, the relative viability (NCI-H2126; first compound 0.08 µM) was 0.827, the relative viability (NCI-H2126; first compound 0.253 µM) was 0.755 and the relative viability (NCI-H2126; first compound 0.8 µM) was 0.726. For the same molecule, the relative viability (NCI-H2126; first compound 2.53 µM) was 0.762, the relative viability (NCI-H2347; first compound 0.08 µM) was 1.15 and the relative viability (NCI-H2347; first compound 0.253 µM) was 1.04. It also gave a relative viability (NCI-H2347; first compound 0.8 µM) of 1.09, a relative viability (NCI-H2347; first compound 2.53 µM) of 1.08 and a relative viability (NCI-H322M; first compound 0.08 µM) of 0.692. For the same molecule, the relative viability (NCI-H322M; first compound 0.253 µM) was 0.704, the relative viability (NCI-H322M; first compound 0.8 µM) was 0.719 and the relative viability (NCI-H322M; first compound 2.53 µM) was 0.905. For the same molecule, the relative viability (NCI-H647; first compound 0.08 µM) was 1.29, the relative viability (NCI-H647; first compound 0.253 µM) was 0.92 and the relative viability (NCI-H647; first compound 0.8 µM) was 1.28. The relative viability (NCI-H647; first compound 2.53 µM) was 1.24, the relative viability (NCI-H661; first compound 0.08 µM) was 0.717 and the relative viability (NCI-H661; first compound 0.253 µM) was 0.49. The relative viability (NCI-H661; first compound 0.8 µM) was 0.569, the relative viability (NCI-H661; first compound 2.53 µM) was 0.578 and the relative viability (NCI-H727; first compound 0.08 µM) was 0.483. The relative viability (NCI-H727; first compound 0.253 µM) was 0.794, the relative viability (NCI-H727; first compound 0.8 µM) was 0.55 and the relative viability (NCI-H727; first compound 2.53 µM) was 0.643. For the same molecule, the relative viability (PC-14; first compound 0.08 µM) was 0.98, the relative viability (PC-14; first compound 0.253 µM) was 0.872 and the relative viability (PC-14; first compound 0.8 µM) was 1.06. The relative viability (PC-14; first compound 2.53 µM) was 0.944, the relative viability (SK-LU-1; first compound 0.08 µM) was 1.08 and the relative viability (SK-LU-1; first compound 0.253 µM) was 0.629. For the same molecule, the relative viability (SK-LU-1; first compound 0.8 µM) was 1.12, the relative viability (SK-LU-1; first compound 2.53 µM) was 0.907 and the relative viability (SW 1573; first compound 0.08 µM) was 0.726. It also gave a relative viability (SW 1573; first compound 0.253 µM) of 0.639, a relative viability (SW 1573; first compound 0.8 µM) of 0.775 and a relative viability (SW 1573; first compound 2.53 µM) of 0.758.
